Values of other authors, collected in patent US5476644A, “Cyclic triamine chelating agents” (Sterling Winthrop Inc., priority 1994, dated 1995).

Conditions: background statement; cited from earlier work

Q: With `[Gd]` [free form of Gd, gadolinium] as the compound, how does the “toxicity of the free form” value read?
A: quite toxic
